Assay results: patent publication US6608086B2, “Dihydropyridines and new uses thereof” (Synaptic Pharmaceutical Corporation, priority 1993, dated 2003)
Counter-ions that a name gives are not always drawn. Like-named read-outs stand apart in the source and are kept apart here.

Legend:
[1] = target: T1, α1B Human Adrenergic Receptor (Homo sapiens, UniProt P35368); experiment: Radioligand binding, [3H]prazosin, cloned human α1B adrenergic receptor; conditions: for Ki: read-out: pKi alpha-1 1b (converted)
T1 construct: The entire coding region of α1B (1563 bp); expressed in transfected cells
T1 sequence (P35368 1-520): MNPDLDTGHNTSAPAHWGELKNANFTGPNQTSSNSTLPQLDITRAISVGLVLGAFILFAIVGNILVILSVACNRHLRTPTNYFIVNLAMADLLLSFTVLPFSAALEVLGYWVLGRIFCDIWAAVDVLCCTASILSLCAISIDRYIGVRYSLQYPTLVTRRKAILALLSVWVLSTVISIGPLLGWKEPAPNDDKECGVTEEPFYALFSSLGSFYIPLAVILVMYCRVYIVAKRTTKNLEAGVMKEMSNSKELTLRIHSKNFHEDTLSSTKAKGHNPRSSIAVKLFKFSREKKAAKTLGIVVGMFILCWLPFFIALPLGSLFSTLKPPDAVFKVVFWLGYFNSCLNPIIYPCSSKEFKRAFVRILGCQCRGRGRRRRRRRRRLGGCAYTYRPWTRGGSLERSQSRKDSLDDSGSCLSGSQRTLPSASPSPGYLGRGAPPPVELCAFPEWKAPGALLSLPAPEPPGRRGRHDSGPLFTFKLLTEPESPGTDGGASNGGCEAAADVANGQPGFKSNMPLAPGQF
How it was run: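 [3H]prazosin (0.5 nM) binding was run for 20 min at 37° C in pH 7.5 Tris/MgCl2/ascorbate buffer on membranes of LM(tk−) cells stably expressing the cloned receptor. Filtration through GF/B ended the reaction; 10 μM phentolamine gave nonspecific binding.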

[2] = target: T2, α1A Human Adrenergic Receptor (Homo sapiens, UniProt P25100); experiment: Radioligand binding, [3H]prazosin, cloned human α1A adrenergic receptor; conditions: for Ki: read-out: pKi alpha-1 1a (converted)
T2 construct: The entire coding region of α1A (1719 bp); expressed in transfected cells
T2 sequence (P25100 1-572): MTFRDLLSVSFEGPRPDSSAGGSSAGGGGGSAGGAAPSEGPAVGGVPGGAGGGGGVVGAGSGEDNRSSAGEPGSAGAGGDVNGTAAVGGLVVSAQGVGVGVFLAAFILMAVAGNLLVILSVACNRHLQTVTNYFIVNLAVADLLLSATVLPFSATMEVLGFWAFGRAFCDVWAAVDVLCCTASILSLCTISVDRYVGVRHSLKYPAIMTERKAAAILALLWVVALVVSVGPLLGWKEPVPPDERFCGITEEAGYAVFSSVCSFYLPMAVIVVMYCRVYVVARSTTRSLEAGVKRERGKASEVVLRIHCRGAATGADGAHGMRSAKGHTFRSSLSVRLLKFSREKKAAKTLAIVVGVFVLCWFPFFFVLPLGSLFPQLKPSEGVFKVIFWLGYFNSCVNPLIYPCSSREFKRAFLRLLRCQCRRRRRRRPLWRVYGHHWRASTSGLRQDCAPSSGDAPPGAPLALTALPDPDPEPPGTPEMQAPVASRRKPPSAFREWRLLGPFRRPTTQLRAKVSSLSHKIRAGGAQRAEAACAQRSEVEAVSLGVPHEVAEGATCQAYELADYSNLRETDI
How it was run: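 In pH 7.5 Tris/MgCl2/ascorbic acid buffer, α1A-expressing LM(tk−) membranes are exposed to 0.5 nM [3H]prazosin (37° C, 20 min). Excess phentolamine (10 μM) marks nonspecific binding before rapid filtration.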

[3] = target: T3, α2A receptor (Homo sapiens, UniProt P08913); experiment: Competition binding, [3H]rauwolscine, human α2A receptor; conditions: for Ki: read-out: pKi alpha-2 2a (converted)
T3 construct: host or cells: LM(tk-) cells, line L-α2A
T3 sequence (P08913 1-465): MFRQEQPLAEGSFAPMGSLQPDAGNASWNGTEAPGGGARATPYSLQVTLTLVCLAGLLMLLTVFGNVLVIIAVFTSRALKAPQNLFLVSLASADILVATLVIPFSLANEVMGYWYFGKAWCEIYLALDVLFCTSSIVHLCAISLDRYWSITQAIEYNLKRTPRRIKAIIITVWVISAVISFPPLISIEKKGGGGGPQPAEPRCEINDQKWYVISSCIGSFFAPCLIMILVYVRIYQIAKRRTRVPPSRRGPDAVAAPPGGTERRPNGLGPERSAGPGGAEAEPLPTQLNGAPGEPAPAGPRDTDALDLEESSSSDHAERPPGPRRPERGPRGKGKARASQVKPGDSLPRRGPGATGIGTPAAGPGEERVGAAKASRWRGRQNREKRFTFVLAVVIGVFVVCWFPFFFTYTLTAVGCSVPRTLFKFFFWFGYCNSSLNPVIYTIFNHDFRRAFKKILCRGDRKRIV
How it was run: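 LM(tk−) lysates, stable α2A/α2B/α2C transfectants; 25 mM glycylglycine pH 7.6 (RT). [3H]rauwolscine 0.5 nM, equilibrium competition; NSB 10 μM phentolamine. GF/B filtration, cell harvester.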

[4] = cloned human receptor in LM(tk-) cell membranes, SEM and n in lines below
[5] = [3H]prazosin, cloned human receptor in LM(tk-) cell membranes, SEM and n in lines below
[6] = [3H]rauwolscine, LM(tk-) cell line L-α2A, SEM and n in lines below

| Ki [1, 4] [nM] | Ki [2, 5] [nM] | Ki [3, 6] [nM] | Compound | other results |
| --- | --- | --- | --- | --- |
| 13.5 | 66.1 | 282 | COC(=O)C1=C(C)NC(C)=C(C(=O)NCCCN2CCC(c3ccccc3)CC2)C1c1ccc([N+](=O)[O-])cc1 (racemic) [(±)-45, (±)-1,4-Dihydro-3-methoxycarbonyl-2,6-dimethyl-4-(4-nitrophenyl)-5-{N-[3-(4-phenylpiperidin-1-yl)propyl]}carboxamidopyridine hydrochloride hemihydrate] |  |
| 53.7 | 155 | 117 | COC(=O)C1=C(C)NC(C)=C(C(=O)NCCCN2CCC(c3ccccc3)CC2)C1c1cccc([N+](=O)[O-])c1 (centres unmarked) [Example 30, 1,4-Dihydro-3-methoxycarbonyl-2,6-dimethyl-4-(3-nitrophenyl)-5-(N-(3-(4-phenylpiperidin-1-yl)propyl)carboxamido)pyridine] |  |
| 20.4 | 112 | 158 | COC(=O)C1=C(C)NC(C)=C(C(=O)NCCCN2CCC(c3ccccc3)CC2)C1c1ccc(C)cc1 (centres unmarked) [Example 31, 1,4-Dihydro-3-methoxycarbonyl-2,6-dimethyl-4-(4-methylphenyl)-5-(N-(3-(4-phenylpiperidin-1-yl)propyl)carboxamido)pyridine] |  |
| 2.63 | 9.77 | 17.4 | COC(=O)C1=C(C)NC(C)=C(C(=O)OCCCN2CCC(c3ccccc3)CC2)C1c1ccc([N+](=O)[O-])cc1 (centres unmarked) [Example 48, 1,4-Dihydro-5-methazycarbonyl-2,6-dimethyl-4-(4-nitrophenyl)-3-[3-(4-phenylpiperidin-1-yl)propoxy]}carbonylpyridine hydrochloride hydrate] |  |
| 3020 | 1950 | 1510 | COC(=O)C1=C(C)NC(C)=C(C(=O)OCCCN2CCCCC2)C1c1ccc([N+](=O)[O-])cc1 (centres unmarked) [Example 50, 1,4-Dihydro-5-methoxycarbonyl-2,6-dimethyl-4-(4-nitrophenyl)-3-[3-(piperidin-1-yl)propoxy]carbonylpyridine hydrochloride etherate] |  |

The remaining lines, values behind:

| Compound | Ki [1, 4] [nM] | Ki [2, 5] [nM] | Ki [3, 6] [nM] | other results |
| --- | --- | --- | --- | --- |
| 5-Acetyl-1,4-dihydro-2,6-dimethyl-4-(4-nitrophenyl)-3-[3-(4,4-diphenylpiperidin-1-yl)propoxy]carbonylpyridine hydrochloride hemihydrate [Example 49] |  |  |  | pKi alpha-1 1b [1, 4]: 6.72; pKi alpha-1 1a [2]: 6.94; pKi alpha-2 2a [3]: 6.63 |
| CNC(=O)C1=C(C)NC(C)=C(C(=O)NCCCN2CCC(c3ccccc3)(c3ccccc3)CC2)C1c1ccc([N+](=O)[O-])cc1 (racemic) [(±)-119, 1,4-Dihydro-2,6-dimethyl-5-(N-Methyl) carboxamido-4-(4-nitrophenyl)-3-{N-[3-(4,4-diphenylpiperidin-1-yl)propyl]}carboxamidopyridine] |  |  |  | pKi alpha-1 1b ([1]; cloned human α1B receptor, LM(tk−) cell membranes): 6.38; pKi alpha-1 1a [2]: 6.21; pKi alpha-2 2a [3]: 6.4 |
| COC(=O)C1=C(C)NC(C)=C(C(=O)NCCCN2CCC(c3ccccc3)CC2)C1c1ccc([N+](=O)[O-])cc1 (single isomer, unassigned; (+)) [(+)-45, 1,4-Dihydro-3-methoxycarbonyl-2,6-dimethyl-4-(4-nitrophenyl)-5-{N-[3-(4-phenylpiperidin-1-yl)propyl]}carboxamidopyridine hydrochloride hemihydrate] | 57.5 | 178 | 240 |  |
| COC(=O)C1=C(C)NC(C)=C(C(=O)NCCCN2CCC(c3ccccc3)CC2)C1c1ccc([N+](=O)[O-])cc1 (single isomer, unassigned; (-)) [(−)-45, 1,4-Dihydro-3-methoxycarbonyl-2,6-dimethyl-4-(4-nitrophenyl)-5-{N-[3-(4-phenylpiperidin-1-yl)propyl]}carboxamidopyridine hydrochloride hemihydrate] | 9.12 | 40.7 | 339 |  |
| COC(=O)C1=C(C)NC(C)=C(C(=O)NCCCCN2CCC(c3ccccc3)CC2)C1c1ccc([N+](=O)[O-])cc1 (centres unmarked) [Example 3, 1,4-Dihydro-3-methoxycarbonyl-2,6-dimethyl-4-(4-nitrophenyl)-5-{N-[4-(4-phenylpiperidin-1-yl)butyl]}carbozamidopyridine hydrochloride hydrate] | 64.6 | 145 | 102 |  |
| COC(=O)C1=C(C)NC(C)=C(C(=O)NCCCN2CCC(c3ccccc3)CC2)C1c1ccc(Cl)c([N+](=O)[O-])c1 (centres unmarked) [Example 17, 4-(4-Chloro-3-nitrophenyl)-1,4-dihydro-3-methoxycarbonyl-2,6-dimethyl-5-(N-(3-(4-phenylpiperidin-1-yl)propyl)carboxamido)pyridine] | 41.7 | 126 | 347 |  |
| CNC(=O)C1=C(C)NC(C)=C(C(=O)NCCCN2CCC(c3ccccc3)(c3ccccc3)CC2)C1c1ccc([N+](=O)[O-])cc1 (centres unmarked) [Example 38, 1,4-Dihydro-2,6-dimethyl-5-(N-methyl)carboxamido-4-(4-nitrophenyl)-3-{N-[3-(4,4-diphenylpiperidin-1-yl)propyl]}carboxamidopyridine] |  |  |  | pKi alpha-1 1b [1, 4]: 6.38; pKi alpha-1 1a [2]: 6.21; pKi alpha-2 2a [3]: 6.40 |
| CC1=C(C(=O)NCCCN2CCC(c3ccccc3)(c3ccccc3)CC2)C(c2ccc([N+](=O)[O-])cc2)C(C(=O)N(C)C)=C(C)N1 (centres unmarked) [Example 39, 1,4-Dihydro-2,6-dimethyl-3-(N,N-dimethyl) carboxamido-4-(4-nitrophenyl)-5-{N-[3-(4,4-diphenylpiperidin-1-yl)propyl]}carboxamidopyridine] |  |  |  | pKi alpha-1 1b [1, 4]: 5.93; pKi alpha-1 1a [2, 5]: 5.77 |
| CC(=O)C1=C(C)NC(C)=C(C(=O)NCCCN2CCC(c3ccccc3)(c3ccccc3)CC2)C1c1ccc([N+](=O)[O-])cc1 (centres unmarked) [Example 47, 5-Acetyl-1,4-dihydro-2,6-dimethyl-4-(4-nitrophenyl)-3-{N-[3-(4,4-diphenylpiperidin-1-yl)propyl]}carboxamidopyridine] |  |  |  | pKi alpha-1 1b [1, 4]: 6.58; pKi alpha-1 1a [2, 5]: 6.29; pKi alpha-2 2a [3, 6]: 6.22 |
| COC(=O)C1=C(C)NC(C)=C(C(=O)NCCCN2CCCCC2)C1c1ccc([N+](=O)[O-])cc1 (centres unmarked) [Example 51, 1,4-Dihydro-3-methoxycarbonyl-2,6-dimethyl-4-(4-nitrophenyl)-5-{N-[3-(piperidin-1-yl)propyl]}carboxamidopyridine hydrochloride etherate] | 5010 | 9770 | 447 |  |
